Test results published in US6825340B2, “Methods and reagents for inactivating ribonucleases” (Ambion, Inc., priority 1998, dated 2004).

Target: T1, RNase A (Bos taurus, UniProt P61823)
T1 sequence (P61823 27-150): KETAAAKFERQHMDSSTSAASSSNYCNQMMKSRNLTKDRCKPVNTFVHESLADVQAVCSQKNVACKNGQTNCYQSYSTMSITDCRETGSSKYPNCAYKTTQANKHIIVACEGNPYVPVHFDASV
Test: RNase A inactivation, mouse total RNA on agarose formaldehyde gel
Format: biochemical
Method: The non-isotopic assay uses total RNA isolated from mouse as the substrate for the RNase mixture. […] A quantity of 4 μg of total RNA isolated from mouse liver or brain was dissolved in an aqueous solution, usually water or 1 mM sodium citrate (pH 6.6). The treated ribonuclease sample was added to the total RNA and then incubated at 37° C. for 1 or 16 hours, depending on the sensitivity desired for the assay. After incubation, the RNA was fractionated in a formaldehyde 1% agarose gel. The RNA was detected by staining with ethidium bromide and then illuminating the gel with ultraviolet light. The RNA fluoresces in the gel. Untreated total RNA was also fractionated as a control with the test samples for comparative purposes. […] Intact total RNA has two major bands produced by the 28S and 18S ribosomal RNA. […] RNase A, at 200 ng/ml instead of 10 μg/ml, was treated with or without 4 mM DTT in Boshes' solution A at 4° C. for 20 minutes. RNase A activity was then tested by incubating mouse liver total RNA with the treated RNase A at 37° C. for 60 minutes. The mouse RNA was then fractionated by electrophoresis in a 1% agarose formaldehyde gel. […] RNase A was diluted to 154 ng/ml in 1 mM sodium citrate (pH 6.4) or in Boshes' (1970) buffer A. DTT was added to the samples to 4 mM or 20 mM and then incubated at 4° C. or 60° C. for 20 minutes.

Structure (SMILES): O[C@H](CS)[C@H](O)CS [DTT, dithiothreitol]
- RNase A inactivation (RNase A 154 ng/ml, 4 mM DTT, 4° C. for 20 minutes): not inactivated
- RNase A inactivation (RNase A 154 ng/ml, 4 mM DTT, 60° C. for 20 minutes): completely inactivated
- RNase A inactivation (RNase A 154 ng/ml, 20 mM DTT, 4° C. for 20 minutes): not inactivated
- RNase A inactivation (RNase A 154 ng/ml, 20 mM DTT, 60° C. for 20 minutes): completely inactivated
- RNase A inactivation (RNase A 200 ng/ml, 4 mM DTT, Boshes' solution A, 4° C. for 20 minutes): not inactivated
- RNase A inactivation (RNase A, 20 mM DTT, 60° C. for 20 minutes): completely inactivated
